Results: US11136325B2, “Pyrrolopyrimidine and pyrrolopyridine derivatives” (GALAPAGOS NV, priority 2017, dated 2021)

Assays:
[1] = biological target: T1, ASK2 (Homo sapiens (Human), UniProt O95382); assay: ASK2 biochemical assay (IMAP technology); details: 25 nM hASK2
Description: IMAP® technology provides a homogeneous assay applicable to a wide variety of kinases, phosphatases, and phosphodiesterases without regard for substrate peptide sequence. The assay is a simple mix-and-read procedure allowing accurate determination of enzyme activity. Based on the specific, high-affinity interaction of phospho groups with trivalent metal-containing nanoparticles (beads), IMAP is a generic, non-antibody-based platform to assess kinase, phosphatase, and phosphodiesterase activity. An enzyme reaction is performed using fluorescently labeled substrate. Addition of the IMAP Binding System stops the enzyme reaction and initiates binding of the beads to phosphorylated substrates. Binding of the substrate to the beads, which correlates to enzyme activity, can be detected using either FP or TR-FRET as a readout.
KIT IMAP FP, Cat. No. R8127; Reaction Buffer-Tween (5× conc.), Molecular Devices, Cat. No. R7436; Diluted 1:5 with H2O and containing DTT (1 mM from 1M stock); Progressive Binding Buffer (PBB) A (5× conc.), Molecular Devices, Cat. No. R7282; Progressive Binding Reagent (PB Reagent), Molecular Devices, Cat. No. R7284; Enzyme Solution (containing 2× Ask1 in Reaction buffer); Substrate Solution (containing 2× peptide substrate in Reaction buffer, and 2×150 μM ATP in Reaction buffer); Bead Buffer (Progressive Binding Buffer A diluted 1:5 with H2O); Bead Solution (Bead Buffer containing 1:200 Progressive Binding Reagent (2×))
100 nL of test compound in 100% DMSO was added to 384-well plates. […] The plates were then incubated for 2 h at room temperature after which time the plates were read on a Perkin Elmer EnVision plate reader.
Calculation of IC50 data, curves and QC analysis was made by using Excel tools and GraphPadPrism software, v. […] Calculated results: Calc 1: mP value for FP measurement=1000*(S−G*P)/(S+G*P) where S=<detector 2 or FP-BodipyTAMRA_Ex531-Em579-optimized(1) channel 2>P=<detector 1 or FP-BodipyTAMRA_Ex531-Em579-optimized(1) channel 1>G=G-factor. […] Top constrain is used only if top values are not correctly calculated. […]

[2] = biological target: Full length human ASK1 protein (Homo sapiens (Human), UniProt Q99683); assay: ASK1 biochemical assay (AlphaScreen technology, MKK7 phosphorylation); details: 150 μM ATP, 400 nM MKK7, 0.8 nM ASK1
Description: (§1) ASK1 and ASK2 biochemical activities were also quantified using AlphaScreen technology which measures the degree of phosphorylation of a protein substrate (MKK7). AlphaScreen technology is based on the binding of a substrate to two types of beads, acceptor and donor. Binding to one bead is through the tag of the substrate protein. Binding of the second bead is through phosphospecific binding of antibody to the phosphosite of the substrate. This forms a sandwich, with the acceptor and donor beads in close proximity. When the donor beads are excited by light in the 680 nm range, a singlet oxygen is released and causes emission of light from the acceptor in the 620 nm range which can be detected using a suitable plate reader.
(§2) The phosphorylation site on MKK7 (Ser271/Thr275) is then recognised by a phosphospecific antibody. The phosphospecific antibody is bound to the AlphaScreen acceptor beads through a Protein-A interaction. Phosphorylation of MKK7 by ASK1 or ASK2 subsequently facilitates the bringing together of the donor and acceptor beads into close proximity whereupon the transfer of the singlet oxygen leads to the generation of the AlphaScreen signal.
(§3) The assay was configured to run using the following conditions (final concentrations): 150 μM ATP; 400 nM MKK7; 0.8 nM ASK1 and 2 nM ASK2.
(§4) 100 nL of test compound (starting concentration 6 μM, 11 concentrations with 3 fold serial dilutions) in 100% DMSO was added to low volume 384 well plates. 2.5 μl of ASK1 or ASK2 was added to each well except in the control wells to which 2.5 μl buffer was added. 2.5 μl of MKK7 solution was added to all wells. The plate was incubated for 60 minutes at room temperature. Protein-A acceptor beads and phospho-specific antibody were incubated for 30 minutes and then 2.5 μl of Protein-A acceptor beads/phospho-specific antibody mix (2.5 μg/ml acceptor beads final concentration and 1/800 antibody final dilution) was added to each well. The plate was incubated for 30 minutes at room temperature and then 2.5 μl of GSH donor beads (10 μg/ml acceptor beads final concentration) was added to each well. The plate was incubated for a further 60 minutes at room temperature, following which the plate was read on a Perkin Elmer Enspire plate reader.
Calculation of IC50 data, curves and QC analysis were made by using Excel tools and GraphPadPrism software, v. 5.03. Briefly, individual concentration-effect curves were generated by plotting the logarithm of the tested concentration of tested compounds (X) vs. corresponding percent inhibition values (Y) using least squares (ordinary) fit. Fitting equation used for IC50 calculation=log(inhibitor) vs. response−Variable slope (four parameters).

[3] = biological target: T1, ASK2; assay: ASK2 biochemical assay (AlphaScreen technology, MKK7 phosphorylation); details: 150 μM ATP, 400 nM MKK7, 2 nM ASK2
Description: as §1, §2, §3
as §4, with “The plate was incubated for 30 minutes at room temperature and then 2.5 μl of GSH donor beads (10 μg/ml acceptor beads final concentration) was added to each well.” left out, “reader. […]” for “reader.”

T1 sequence (O95382 whole entry): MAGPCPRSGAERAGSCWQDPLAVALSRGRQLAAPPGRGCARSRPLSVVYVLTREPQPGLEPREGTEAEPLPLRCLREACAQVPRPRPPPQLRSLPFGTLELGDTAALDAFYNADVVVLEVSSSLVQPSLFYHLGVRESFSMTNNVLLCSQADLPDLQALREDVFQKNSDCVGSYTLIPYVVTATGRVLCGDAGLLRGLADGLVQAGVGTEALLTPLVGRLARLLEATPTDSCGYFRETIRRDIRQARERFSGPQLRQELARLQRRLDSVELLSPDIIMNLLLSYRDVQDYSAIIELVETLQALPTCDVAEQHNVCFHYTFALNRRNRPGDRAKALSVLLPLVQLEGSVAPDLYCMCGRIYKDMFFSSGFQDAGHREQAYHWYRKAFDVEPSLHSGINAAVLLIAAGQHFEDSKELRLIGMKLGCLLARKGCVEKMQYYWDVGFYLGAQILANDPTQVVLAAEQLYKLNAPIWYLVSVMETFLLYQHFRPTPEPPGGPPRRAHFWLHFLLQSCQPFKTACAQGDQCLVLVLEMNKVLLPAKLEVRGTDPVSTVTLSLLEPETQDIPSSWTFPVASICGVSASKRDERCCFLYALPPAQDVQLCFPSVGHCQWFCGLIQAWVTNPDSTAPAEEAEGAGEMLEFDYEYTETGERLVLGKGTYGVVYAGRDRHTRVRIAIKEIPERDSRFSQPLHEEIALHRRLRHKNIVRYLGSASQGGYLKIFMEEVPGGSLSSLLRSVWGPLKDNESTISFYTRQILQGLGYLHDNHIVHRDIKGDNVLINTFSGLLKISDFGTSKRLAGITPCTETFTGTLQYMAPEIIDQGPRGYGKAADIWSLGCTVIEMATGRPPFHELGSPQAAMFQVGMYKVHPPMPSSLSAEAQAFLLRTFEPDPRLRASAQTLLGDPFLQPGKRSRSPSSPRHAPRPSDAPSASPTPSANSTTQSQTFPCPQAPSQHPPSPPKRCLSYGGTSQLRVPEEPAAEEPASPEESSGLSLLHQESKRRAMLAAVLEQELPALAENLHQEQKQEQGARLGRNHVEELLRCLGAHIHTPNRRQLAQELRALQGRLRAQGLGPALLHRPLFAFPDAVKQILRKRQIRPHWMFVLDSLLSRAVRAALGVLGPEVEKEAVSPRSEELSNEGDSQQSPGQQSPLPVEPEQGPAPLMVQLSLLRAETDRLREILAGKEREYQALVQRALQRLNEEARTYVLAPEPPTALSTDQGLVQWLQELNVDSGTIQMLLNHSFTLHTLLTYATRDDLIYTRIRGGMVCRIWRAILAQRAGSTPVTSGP
Sequence of Full length human ASK1 protein (Q99683 whole entry): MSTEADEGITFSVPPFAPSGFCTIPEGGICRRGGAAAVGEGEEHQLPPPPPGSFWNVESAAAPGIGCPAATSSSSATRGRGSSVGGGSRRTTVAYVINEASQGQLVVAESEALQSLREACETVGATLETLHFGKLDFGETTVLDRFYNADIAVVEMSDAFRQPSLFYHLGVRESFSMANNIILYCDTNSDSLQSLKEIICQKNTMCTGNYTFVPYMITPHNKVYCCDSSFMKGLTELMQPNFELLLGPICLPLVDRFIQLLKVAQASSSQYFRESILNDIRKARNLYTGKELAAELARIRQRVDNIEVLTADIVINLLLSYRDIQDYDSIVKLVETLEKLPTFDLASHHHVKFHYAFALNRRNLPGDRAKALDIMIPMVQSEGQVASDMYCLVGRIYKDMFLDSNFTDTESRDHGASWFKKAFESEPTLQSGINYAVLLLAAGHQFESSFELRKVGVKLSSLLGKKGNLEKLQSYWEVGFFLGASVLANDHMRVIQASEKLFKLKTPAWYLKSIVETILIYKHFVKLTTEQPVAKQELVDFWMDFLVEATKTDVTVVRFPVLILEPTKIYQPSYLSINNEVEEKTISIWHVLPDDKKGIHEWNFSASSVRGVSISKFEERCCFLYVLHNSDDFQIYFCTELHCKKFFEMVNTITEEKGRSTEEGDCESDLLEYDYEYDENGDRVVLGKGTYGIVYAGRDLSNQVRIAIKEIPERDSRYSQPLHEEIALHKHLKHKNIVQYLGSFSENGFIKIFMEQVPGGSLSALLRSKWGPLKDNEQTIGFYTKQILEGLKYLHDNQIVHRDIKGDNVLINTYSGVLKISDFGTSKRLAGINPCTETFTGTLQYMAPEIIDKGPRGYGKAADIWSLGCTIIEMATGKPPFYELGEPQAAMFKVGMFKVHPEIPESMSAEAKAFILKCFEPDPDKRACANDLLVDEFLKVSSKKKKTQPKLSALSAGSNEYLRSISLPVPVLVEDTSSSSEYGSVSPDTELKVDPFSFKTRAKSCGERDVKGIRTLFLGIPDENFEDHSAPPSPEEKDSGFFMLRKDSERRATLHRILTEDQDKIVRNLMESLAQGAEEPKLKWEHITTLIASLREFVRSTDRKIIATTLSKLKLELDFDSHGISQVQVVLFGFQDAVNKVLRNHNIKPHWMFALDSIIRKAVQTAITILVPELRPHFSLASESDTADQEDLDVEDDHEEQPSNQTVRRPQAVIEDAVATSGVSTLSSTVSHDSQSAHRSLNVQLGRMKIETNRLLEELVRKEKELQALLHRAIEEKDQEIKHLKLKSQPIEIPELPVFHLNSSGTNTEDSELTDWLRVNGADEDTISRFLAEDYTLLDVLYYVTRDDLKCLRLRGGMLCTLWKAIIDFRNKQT

| Structure (SMILES) | Inhibition (pIC50) ASK2 [1] | Inhibition (pIC50) ASK1 [2] | Inhibition (pIC50) ASK2 [3] |
| --- | --- | --- | --- |
| Cc1c[nH]c2ncnc(N3CCC(NC(=O)c4cc(N)ncc4F)CC3)c12 [Compound 1, 2-amino-5-fluoro-N-[1-(5-methyl-7H-pyrrolo[2,3-d]pyrimidin-4-yl)-4-piperidyl]pyridine-4-carboxamide] | 7.96 | 8.72 | 7.71 |
| Cc1cnc(N)cc1C(=O)NC1CCN(c2ncnc3[nH]cc(C)c23)CC1 [Compound 2, 2-amino-5-methyl-N-[1-(5-methyl-7H-pyrrolo[2,3-d]pyrimidin-4-yl)-4-piperidyl]pyridine-4-carboxamide] | 8.08 | 8.9/— | – |
| Cc1c[nH]c2ncnc(N3CCC(NC(=O)c4cc(N)ncc4Cl)CC3)c12 [Compound 3, 2-amino-5-chloro-N-[1-(5-methyl-7H-pyrrolo[2,3-d]pyrimidin-4-yl)-4-piperidyl]-pyridine-4-carboxamide] | – | 8.7 | 7.8 |
| Nc1cc(C(=O)NC2CCN(c3ncnc4[nH]cc(Cl)c34)CC2)ccn1 [Compound 4, 2-amino-N-[1-(5-chloro-7H-pyrrolo[2,3-d]pyrimidin-4-yl)-4-piperidyl]pyridine-4-carboxamide] | 8.19 | 9.4 | 8.2 |
| Nc1cc(C(=O)NC2CCN(c3ncnc4[nH]cc(Cl)c34)CC2)c(F)cn1 [Compound 5, 2-amino-N-[1-(5-chloro-7H-pyrrolo[2,3-d]pyrimidin-4-yl)-4-piperidyl]-5-fluoro-pyridine-4-carboxamide] | – | 8.8/— | – |
| Cc1c[nH]c2ncc(C#N)c(N3CCC(NC(=O)c4cc(N)ncc4F)CC3)c12 [Compound 6, 2-amino-N-[1-(5-cyano-3-methyl-1H-pyrrolo[2,3-b]pyridin-4-yl)-4-piperidyl]-5-fluoro-pyridine-4-carboxamide] | – | 8.98/—^ | – |
| Nc1cc(C(=O)NC2CCN(c3ccnc4[nH]cc(Cl)c34)CC2)c(F)cn1 [Compound 7, 2-amino-N-[1-(3-chloro-1H-pyrrolo[2,3-b]pyridin-4-yl)-4-piperidyl]-5-fluoro-pyridine-4-carboxamide] | – | 8.24/—^ | – |
